Results reported in patent publication US6432403B1, “Antibodies to polypeptides having prenylcysteine carboxyl methlytransferase activity or inhibiting activity” (New York University, priority 1997, dated 2002).

How the values were obtained:
Assay type in all cases: biochemical
[1] = biological target: T1, endogenous neutrophil pcCMT (Homo sapiens, UniProt O60725); assay: Carboxyl methylation of Rho GTPases by human neutrophil membranes; details: stated identical to the recombinant enzyme; read-out: ED50 for endogenous neutrophil pcCMT
T1 construct: endogenous in cells; host or cells: human peripheral blood neutrophils, light membranes (nitrogen cavitation, sucrose density centrifugation)
T1 sequence (O60725 whole entry): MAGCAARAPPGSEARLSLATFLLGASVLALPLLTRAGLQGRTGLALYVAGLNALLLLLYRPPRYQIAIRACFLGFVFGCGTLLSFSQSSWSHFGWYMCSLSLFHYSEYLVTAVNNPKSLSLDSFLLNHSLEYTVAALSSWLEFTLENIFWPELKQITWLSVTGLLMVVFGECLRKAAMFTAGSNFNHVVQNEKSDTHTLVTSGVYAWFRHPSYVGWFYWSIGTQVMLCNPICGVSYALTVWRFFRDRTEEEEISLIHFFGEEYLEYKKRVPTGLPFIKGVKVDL
Description: (§1) FIGS. 5A and 5B show the carboxyl methylation of ras-related GTPases by COS-1 cell membranes expressing ectopic human pcCMT. In FIG. 5A, neutrophil cytosol (CS) containing a mixture of Rho family proteins complexed with Rho-GDI (lanes 2, 3, 6, 7, 10, 11) or RhoA-GDI complexes partially purified from CS (lanes 4, 8, 12) were incubated with the methyl donor S-adenosyl-L-[methyl-^3H]methionine and light membranes derived from nitrogen cavitation of human neutrophils (lanes 1-4) or COS-1 cells transiently transfected with either human pcCMT (lanes 5-8) or vector alone (lanes 9-12). In some reactions (lanes 3, 7, 11) a competitive pcCMT inhibitor, AFC, was included. Reaction products were analyzed by SDS-PAGE and fluorography. The position of carboxyl methylated […] is indicated as is the position of protein phosphatase 2a (PP2a) that is methylated on a C-terminal leucine by an enzyme unrelated to pcCMT (Lee et al, 1993). […] Carboxyl methyltransferase activity was quantitated in membranes of COS-1 cells transfected with HL60 pcCMT using prenylcysteine analogs as defined substrates (Philips et al, 1995). […]

human pcCMT [2] = biological target: T2, human pcCMT (Homo sapiens, UniProt O60725); assay: Carboxyl methylation of prenylcysteine analogs (AFC, AGGC) as defined substrates by the recombinant enzyme in COS-1 membranes
T2 construct: The 3.6-kb full-length HL60 pcCMT cDNA and an 852-bp cDNA fragment comprising the ORF were subcloned into the eukaryotic expression vectors; expressed in transfected cells; host or cells: COS-1 cells (pCDM8 vector, DEAE-dextran transfection); light membranes after nitrogen cavitation
T2 sequence (O60725 whole entry, the tested form may be a part): as the sequence (O60725 whole entry) above
Description: Prenylcysteine Carboxyl Methyltransferase Assays: COS-1 cells transfected with HL60 pcCMT or vector alone were harvested at 48 hours with 5 mM EDTA and subjected, in parallel with human neutrophils, to nitrogen cavitation and discontinuous sucrose density centrifugation as described (Philips et al, 1991). Light membranes were assayed for pcCMT activity qualitatively by S-adenosyl-L- [methyl-^3H]methionine labeling (SDS-polyacrylamide gel electrophoresis and flurography) of Rho GTPases partially purified from neutrophil cytosol and quantitatively by carboxyl methylation of N-acetyl-S-trans,trans-farnesyl-L-cysteine (AFC) (heptane partition, alkaline hydrolysis, and measurement of vapor phase [^3H]methanol) as described (Philips et al, 1995)
To determine whether the HL60 STE14 protein homolog has prenylcysteine carboxyl methyltransferase activity, the cDNA was subcloned into a mammalian expression vector PCDM8 (Invitrogen, San Diego, Calif.) and transiently overexpressed ectopically in COS-1 cells. Membranes prepared from these cells were used as a source of recombinant enzyme. Farnesylated Ras GTPases require detergent for extraction from membranes. Therefore, geranylgeranylated neutrophil cytosolic Rho accessory protein, guanine nucleotide dissociation inhibitor (GDI), were utilized as endogenous substrates in an in vitro assay (FIGS. 5A and 5B). Untransfected COS-1 cell membranes had little pcCMT activity toward Rho proteins compared with that of membranes derived from human neutrophils (FIG. 5A). Transfection with the HL60 cDNA conferred pcCMT activity toward Rho GTPases on COS-1 membranes, and this activity was blocked by the competitive pcCMT inhibitor, AFC, with an ED50 (10 μM) identical to that for endogenous neutrophil pcCMT. Carboxyl methylation of Rac2 and RhoA by HL60 pcCMT-transfected COS-1 cell membranes was enhanced by guanosine 5′-3-O-(thio)triphosphate (GTPγS) (FIG. 5B), similar to the activity observed in neutrophil membranes (Philips et al, 1993). Carboxyl methyltransferase activity was quantitated in membranes of COS-1 cells transfected with HL60 pcCMT using prenylcysteine analogs as defined substrates (Philips et al, 1995). Untransfected COS-1 cell membranes had […] (n=5) of the pcCMT specific activity of neutrophil membranes toward AFC.
The Michaelis constants of the recombinant enzyme, Km=7 μM for AFC and 0.6 μM for AGGC, were similar to those for the endogenous neutrophil enzyme (Pillinger et al, 1994). Thus, the cDNA described above encodes authentic human myeloid pcCMT.

human pcCMT [3] = biological target: T2, human pcCMT; assay: Carboxyl methylation of Rho GTPases by COS-1 cell membranes expressing human pcCMT (S-adenosyl-L-[methyl-3H]methionine labeling, SDS-PAGE, fluorography); details: COS-1 membranes transfected with HL60 cDNA; read-out: ED50 for block of pcCMT activity toward Rho GTPases
Description: as §1

Question: Which EC50 [1] does the source give for `CC(=O)N[C@@H](CSC/C=C(\C)CC/C=C(\C)CCC=C(C)C)C(=O)O` [AFC, N-acetyl-S-trans,trans-farnesyl-L-cysteine] here?
Answer: Its EC50 is 10 µM.

Question: What about the “Increase in carboxyl methylation of the substrate on pcCMT transfection” value (human pcCMT [2]; n=2) of the same compound?
Answer: The value was 20 fold.

Question: What about the Km (human pcCMT [2]; recombinant enzyme, read-out: Michaelis constant Km) of the same compound?
Answer: Its Km is 7 µM.

Question: What about the EC50 (human pcCMT [3]) of the same compound?
Answer: Its EC50 is 10 µM.
